Laboratory results as given in publication PMC11219860, “A chemogenetic approach for dopamine imaging with tunable sensitivity” (Nature Communications, 2024).
Like-named read-outs stand apart in the source and are kept apart here.

Assays:
[1] = 10 and 30 mg/kg per os, ref Svensson et al 2017, cited from earlier work
[2] = test system: dLight1.3b; experiment: Unpredicted reward or footshock with PFC dLight1.3b photometry; assay type: in vivo, mouse
Method: After habituating mice to the experimental chamber (4 consecutive days for 5–10 min) mice were food restricted to 90% ad libitum body weight. […] During learning sessions, the delay between CS and US was increased every training day from 2 to 10 seconds until mice became expert. […] After i.p. injection, mice were placed into an operant chamber. 3–4 electric footshocks (0.4 mA for 1 second) were delivered 10 to 25 min post vehicle or DETQ with variable intervals (randomly chosen from a uniform distribution between 240 and 360 seconds or between 120 and 240 seconds) without predictive cues. Mouse freezing behavior was monitored with a video camera (C310 Logitech,10 frames per second) positioned above the recording chamber and controlled by the Synapse software. […] Freezing was defined as the complete cessation of all movement for at least 1 s during a 25-min testing duration.
For long-term recordings during optogenetic stimulation or chemogenetic inhibition linear fit was calculated across the entire recording or across the vehicle epoch; for event-related experiments fit was performed on fluorescent data obtained in the −60 to +60 s around opto events or −5 to −1 s around behavioral events. […] DA event-related responses were quantified by computing the value at the transient’s peak value and the AUC in the 0 to 10 s or 0 to 60 s period post-event onset. […] The maximal peak value of Veh-normalized ΔF/F0 after opto-onset was plotted over time and the plateau of maximal response was determined by averaging peak opto responses 5, 10, 15 and 20 min post-DETQ. We then looked at trials between 5 and 65 min post-DETQ to determine which trials belonged to a ‘temporal window for stable imaging’. […] Average ΔF/F0 in the 10–20 min post vehicle injection, 0–10 min post DETQ/Veh and 2–12 min post J60/Veh were computed. […] For weekly DETQ injection, AUC was calculated in the relevant drug epoch (Veh, DETQ) and normalized against the duration of that epoch (Veh: 10 min, DETQ: 50 min). […] AUC of the baseline was calculated within the +5 to +40 minutes time window post ip injection. For detection of spontaneous DA peaks the calculated ΔF/F0 was smoothed with a 50 datapoints (410 milliseconds) moving window, and the built-in Matlab function findpeaks was applied, with the threshold for minimal peak prominence set to 0.5% ΔF/F0.

[3] = test system: dLight1.3b; experiment: In vivo single-fiber photometry of dLight1.3b baseline in freely-moving mice; design: species or system mouse; details: DETQ 10 mg/kg i.p.
Method: For combined locomotion/photometry experiments in the open field (OF) in tethered mice, a 50 × 50 cm arena was used. Fiber photometry was conducted using a Doric photometry rig combined with a filter/mirror minicube set (Doric Lenses), as above. […] Data were sampled at 122 Hz. […] Mice were habituated to the chamber for 3 consecutive days (30 minutes per day). On experimental days, locomotor activity was video recorded and synchronized with fiber photometry signal recording. […] The OF chamber was cleaned with ethanol and water between mice. Recording sessions were repeated at 48 hours intervals. Mouse behavior as well as photometry signals were analyzed with a custom-written MATLAB script. Mouse locomotion was computed using the body center point of the animal. The center zone of the arena was defined automatically during behavior data analysis as the 25 × 25 cm square with the central point aligned to the center of the open field. […] Videos were recorded with a Logitech C270 camera and analyzed with DeepLabCut (version 2.1.8.2)[84] on an existing open field network. Representative traces were generated with the Anymaze (v7.2) software (Stoelting Co.).

[4] = test system: dLight1.3b; experiment: NAc dLight1.3b photometry with food restriction; assay type: in vivo, mouse; details: DETQ 10 mg/kg
Method: To determine how metabolic state modulates tonic DA levels, DAT^IREScre mice expressing dLight1.3b in the NAc core were tested in either the fed state (ad libitum), the food-restricted state (mice food restricted to 90% of baseline body weight for 5–7 days), or after 4 weeks recovery from food-restriction (ad libitum). Daily food intake was measured per cage (2–3 mice per cage). […] Mice were injected i.p. with vehicle at 0 min and DETQ (10 mg/kg) 10–15 min later, then recording lasted 50 min.
For long-term recordings during optogenetic stimulation or chemogenetic inhibition linear fit was calculated across the entire recording or across the vehicle epoch; for event-related experiments fit was performed on fluorescent data obtained in the −60 to +60 s around opto events or −5 to −1 s around behavioral events. […] DA event-related responses were quantified by computing the value at the transient’s peak value and the AUC in the 0 to 10 s or 0 to 60 s period post-event onset. […] The maximal peak value of Veh-normalized ΔF/F0 after opto-onset was plotted over time and the plateau of maximal response was determined by averaging peak opto responses 5, 10, 15 and 20 min post-DETQ. […] AUC of the baseline was calculated within the +5 to +40 minutes time window post ip injection. […]

[5] = molecular target: AlloLite-ctr (Homo sapiens, UniProt P21728, L143A/R130Q); assay type: cell-based
Method: Cells were transfected at 50–60% confluency in glass-bottomed dishes (either individually or in 24-well plates) using the Effectene transfection kit (Qiagen) according to manufacturer instructions, and imaged 24–48 h after transfection. The Flp-In™ T-REx™ 293 cells (Thermo Fisher) with a stably integrated dLight1.3b cassette[48] were cultured as follows: the cells were cultured using HEK293T cell medium with the addition of Blasticidin (15 µg/ml) and Hygromycin B (200 µg/ml). To induce the expression of dLight1.3b, doxycycline (500 ng/ml) was added to the culture medium for 24–48 hours. Before imaging, cells were rinsed with 1 mL of Hank’s Balanced Salt Solution (HBSS, Life Technologies) supplemented with Ca^2+ (2 mM) and Mg^2+ (1 mM), and imaged at room temperature with a final HBSS volume of either 100 µL for each individual 1.5 cm glass bottom dish, or 500 µL for 24-well plates. […] For quantification, except otherwise noted, regions of interest (ROI) were selected manually using the threshold function of Fiji to isolate the cell membrane. Sensor response (∆F/F) was calculated as the following: (F(t)-F_base)/F_base with F(t) being the ROI fluorescence value at each time point (t), and F_base being the mean fluorescence of the 10-time points immediately prior to ligand addition.

C[C@H]1c2cccc(C(C)(C)O)c2C[C@H](CO)N1C(=O)Cc1c(Cl)cccc1Cl [DETQ, 2-(2,6-dichlorophenyl)-1-((1S,3R)-3-(hydroxymethyl)-5-(2-hydroxypropan-2-yl)-1-methyl-3,4-dihydroisoquinolin-2(1H)-yl)ethan-1-one]
behavioral activity ([1]; hD1 mice): pronounced behavioral activation | behavioral activity ([1]; wild type mice): no behavioral activity | increase in the average peak amplitude vs. Vehicle ([2]; PFC, unpredicted reward): 2 fold | single trials with detected response to reward ([2]; PFC, unpredicted reward): 90.91 ± 1.40% | amplitude of DA signals during unexpected footshocks ([2]; PFC, vs interleaved vehicle days): significantly larger | response to footshocks (freezing) ([2]; mouse, in vivo): not affected | licking duration ([2]; unpredicted reward): remained unchanged | increase in sensor baseline ([3]; NAc): 15–20 % ∆F/F0 | increase in sensor baseline ([3]; PFC): 2–4 % ∆F/F0 | step-like increase in baseline fluorescence, food-restriction versus ad libitum state [4]: significantly higher | α factor [5]: 1.6 | maximal fluorescent response to a saturating concentration of DA ([5]; DA 100 µM, wide range of DETQ concentrations): not affected
